Test [1] relates to throat irritation and cough. The experiment in a line: Ludipress tablet on the tongue in an individual with throat irritation and cough. The class given is in vivo, human. The conditions noted are these: 3% wt/wt tablet in Ludipress, 60 mg (1.8 mg CPS-195). As for the experimental part: CPS-195 was formulated as a 3% wt/wt tablet in Ludipress®, a rapidly disintegrating direct compression excipient made by BASF Corp. The tablet size was 60 mg so each unit contained 1.8 mg of CPS-195. […] For example, applied onto the mucous membranes of the oral cavity it can soothe the discomforts of pharyngitis/laryngitis, oral mucositis, oral ulcers, and idiopathic facial pain. In the pharynx and upper airways, CPS-195 may be used to reduce or to treat cough, asthma, and chronic obstructive pulmonary disease. On the skin, CPS-195 can be used to treat the discomfort of severe acne, eczema, diabetic ulcers, and the like.

For another test, the system named is skin of the upper lip. The experiment in a line: Cooling sensation bioassay, ointment applied to skin above the upper lip (philtrum). Format: in vivo, human. The conditions noted are these: for duration of action, cooling on the skin of the upper lip (FIG. 1 legend): in Aquaphor ointment, concentration not given; for duration of action, cooling on the skin of the upper lip: 0.5% wt/vol in Aquaphor ointment; for duration of action (in words): application to the skin of test subjects; for quality of sensation and duration (coolness not cold, duration at least three hours): philtrum method of testing. From the text: A reliable place for topical application is on the upper lip, above the vermillion border of the lips, on the philtrum, lateral to the philtrum until the nasolabial folds, and on the lower nostrils. This part of the face is known to be densely innervated with cold receptors, second only to the surface of eyeball. Tingling, cool and cold sensations may be experienced and rated for intensity. This test is quite accurate for predicting the cooling activity of candidate N-arylshydroxyalkylidene-cCarboxamide drugs, but most importantly, it also measures the duration of drug action on the sensory receptors. The duration of action is not measured in a receptor assay and is difficult to quantify on the tongue because of the dynamic fluid conditions in the oral cavity and the presence of taste factors that affect thermosensation.
Bioassay Procedures For bioassay of CPS-195 on the skin, CPS-195 was stirred and dissolved in warm liquid Aquaphor® ointment to yield ointment concentrations of 0.25, 0.5, 1 and 2% wt/vol. After cooling, 50 to 80 mg of the solid ointment was placed on the tip of a plastic stick and applied to the skin above the upper lip, on the philtrum, and lateral to the philtrum up to the nasolabial folds, of test subjects and the onset and duration of cooling sensations recorded.
The intensity of the subjective skin sensation is rated as 0, 1, 2 or 3 with: 0 as no change, 1 as slight coolness, cold, or tingling, 2 as clear cut signal of coolness, cold, or tingling, and 3 as robust cooling or cold. The interval for recording sensations is at 5 min intervals, until two successive zeroes are obtained. The results are averaged values of 4 to 6 separate trials in the same individual. The data are plotted using SigmaPlot (Systat Software, Point Richmond Calif.) and a smoothing function with a negative exponential was used for analysis and statistical fit of the results.
The onset of drug action is taken as the time to reach 2 units of coolness intensity, and offset of drug action is the time when coolness intensity drops below 1.5, after previously surpassing 2 units. The duration of cooling action is defined as the offset time minus the onset time, which in this case averaged […]. The quality of the sensation is also noted, such as refreshing coolness, cold, or if the sensation is accompanied by irritation (stinging or burning). The quality of the sensation is not rated for intensity.

The test system of test [2] is dorsal surface of the tongue. The experiment in a line: Cooling sensation after placement on the dorsal surface of the tongue. The class given is in vivo, human. As to conditions: 2 mg on dorsal surface of the tongue. As for the experimental part: The onset of cooling was 3 to 5 min, but once the effect was established, the entire oral cavity and pharyngeal surfaces (oro-, laryngo- and naso-pharynx) felt cool.

For the next test, the target named is T1, TRP-M8 receptor (Homo sapiens, UniProt Q7Z2W7).
T1 construct: expressed in transfected cells
The test can be described thus: TRP-M8 receptor assay. The class given is cell-based. The source says: Tests for Activities of New Compounds. Pain was defined by Sir Charles Sherrington as “the psychic adjunct of an imperative protective reflex”. Psychic events such as cooling, irritation, itch, and pain cannot be expressed by animals (animals cannot say “ouch” or that “it itches”) so the sensory effects of chemicals must be indirectly inferred. Receptor assays, based on cells transfected with the gene for TRP-M8 or TRP-A1, may be used as a model of sensory processes. […] The best information on the pharmacological properties of these chemicals must therefore be derived from human experiment.

T1 sequence (Q7Z2W7 whole entry): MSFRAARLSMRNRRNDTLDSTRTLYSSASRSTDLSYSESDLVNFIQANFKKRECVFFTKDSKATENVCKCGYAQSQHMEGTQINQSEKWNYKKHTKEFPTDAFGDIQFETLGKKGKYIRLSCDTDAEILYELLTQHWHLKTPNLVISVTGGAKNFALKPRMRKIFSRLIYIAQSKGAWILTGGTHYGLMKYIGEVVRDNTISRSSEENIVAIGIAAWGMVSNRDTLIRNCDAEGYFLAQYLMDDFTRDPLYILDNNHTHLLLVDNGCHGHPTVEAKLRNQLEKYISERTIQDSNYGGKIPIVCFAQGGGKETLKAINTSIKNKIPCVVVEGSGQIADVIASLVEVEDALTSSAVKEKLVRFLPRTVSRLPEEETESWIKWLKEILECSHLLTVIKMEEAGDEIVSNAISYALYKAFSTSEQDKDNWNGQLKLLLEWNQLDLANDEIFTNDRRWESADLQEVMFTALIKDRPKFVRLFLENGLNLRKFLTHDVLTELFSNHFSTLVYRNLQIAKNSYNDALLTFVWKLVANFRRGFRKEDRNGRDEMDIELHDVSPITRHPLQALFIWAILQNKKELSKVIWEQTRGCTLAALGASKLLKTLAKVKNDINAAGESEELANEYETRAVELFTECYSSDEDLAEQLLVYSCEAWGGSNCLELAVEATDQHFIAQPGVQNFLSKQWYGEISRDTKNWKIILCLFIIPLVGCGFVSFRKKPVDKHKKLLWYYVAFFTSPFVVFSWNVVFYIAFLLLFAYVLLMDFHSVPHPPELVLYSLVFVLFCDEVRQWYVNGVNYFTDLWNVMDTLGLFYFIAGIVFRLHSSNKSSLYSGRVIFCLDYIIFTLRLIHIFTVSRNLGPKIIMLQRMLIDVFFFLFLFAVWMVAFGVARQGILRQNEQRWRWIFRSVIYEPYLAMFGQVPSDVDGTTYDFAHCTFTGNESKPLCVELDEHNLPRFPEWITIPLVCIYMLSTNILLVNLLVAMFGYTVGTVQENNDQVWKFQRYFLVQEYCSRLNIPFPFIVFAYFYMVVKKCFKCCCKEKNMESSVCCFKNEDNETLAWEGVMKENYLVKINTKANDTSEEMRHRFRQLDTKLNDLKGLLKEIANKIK

Turning to `CC(C)[C@@H]1CC[C@@H](C)C[C@H]1C(=O)N(C)CC(O)c1cccc(O)c1` (stereo in doubt) [CPS-195, 2-Isopropyl-5-methyl-cyclohexanecarboxylic acid [2′-hydroxy-2′-(3″-hydroxy-phenyl)-ethyl]-N-methyl-amide], the “duration of antitussive effect” value in test [1] was 24 h. In test [1], the “effect on throat irritation” value is “reduced throat irritation”. The results for the “duration of action, coolness and cold on the skin of the upper lip” value in the test with skin of the upper lip (0.25% wt/vol in Aquaphor ointment), with skin of the upper lip (1% wt/vol in Aquaphor ointment) and in the test on skin of the upper lip (2% wt/vol in Aquaphor ointment) were 1.2 h, 2.4 h and 5.2 h, respectively. For the same compound, in the test with skin of the upper lip, the “duration of action, cooling on the skin of the upper lip (FIG. 1 legend)” value (“duration … of the upper lip (FIG. 1 legend)” for short) was “more than 1 hr”. Moreover, in the test on skin of the upper lip (upper lip ointment test), the “potency compared to CPS-179, CPS-190 and CPS-192” value was “most potent”. Further, the onset of cooling in test [2] was 3 to 5 min.

Take `CC1CCC(C(C)C)C(C(=O)NCC(O)c2cccc(O)c2)C1` (stereo not shown) [CPS-192]: in the test on skin of the upper lip, the “duration of action, cooling on the skin of the upper lip” value is “more than 1 hr” and the “duration … of the upper lip (FIG. 1 legend)” value was “more than 1 hr”.

Turning to `CCOC(=O)CNC(=O)[C@@H]1C[C@H](C)CC[C@H]1C(C)C` [WS-5, reference compound], the “duration of action (in words)” value in the test on skin of the upper lip is given as “active for less than one hour”.

As to `CC1CCC(C(C)C)C(O)C1` (single isomer, unassigned; (-)) [(−)-menthol, reference compound], in the test on skin of the upper lip, the “duration of action (in words)” value is listed as “active for less than one hour”.

`CC(C)[C@@H]1CC[C@@H](C)C[C@H]1C(=O)Nc1ccc(S(=O)(=O)Nc2ncccn2)cc1` [CPS-125]: the “quality of sensation and duration (coolness not cold, duration at least three hours)” value in the test with skin of the upper lip is on record as “qualitative aspects of sensation are met”.

As to `CC1CCC(C(C)C)C(C(=O)N(C)CC(O)c2ccc(O)c(O)c2)C1` (stereo not shown) [CPS-190], in the test with skin of the upper lip, the “duration of action, cooling on the skin of the upper lip” value is recorded as “more than 1 hr” and the “duration … of the upper lip (FIG. 1 legend)” value is “more than 1 hr”.

Turning to `COc1ccc(NC(=O)[C@@H]2C[C@H](C)CC[C@H]2C(C)C)cc1` [WS-12, reference compound], in the test on skin of the upper lip (2% preparation), the end of action entry is listed as “dissipated at the end of one hour” and the “time at which duration of action peaks” value came out at 30 min. For the same compound, the sensation elicited result with skin of the upper lip (applied at 1 to 2% to the philtrum and its environs) is “strong cold sensations”. The “quality of sensation and duration (coolness not cold, duration at least three hours)” value in the test on skin of the upper lip was “sensations of cold, but of brief duration”. Also, the “activity on the TRP-M8 receptor assay” value on TRP-M8 receptor is reported as “active at sub-micromolar concentrations”.

Consider `CC(=O)c1ccc(C(CO)CNC(=O)[C@@H]2C[C@H](C)CC[C@H]2C(C)C)cc1` (stereo partly shown) [CPS-179, 2-Isopropyl-5-methyl-cyclohexanecarboxylic acid [2′-(4″-acetyl-phenyl)-3′-hydroxy-propyl]-amide], for which, in the test on skin of the upper lip, the “duration of action, cooling on the skin of the upper lip” value was “more than 1 hr” and the “duration … of the upper lip (FIG. 1 legend)” value is “more than 1 hr”.

Source of the values: patent publication US20070155755A1, “N-arylshydroxyalkylidene-carboxamide compositions and methods” (priority 2004, published 2007).
